1 compound from US11253501B2, “Secnidazole formulations and use in treating bacterial vaginosis” (LUPIN INC., priority 2015, dated 2022) can be followed below.

The nature of data set [1]: Urine pharmacokinetics after a single oral dose in fasted healthy female subjects. It counts as in vivo, human. The following applies: 2 gram secnidazole microgranule formulation (70% drug in core).
The nature of data set [2]: Plasma pharmacokinetics after a single oral dose in fasted healthy female subjects. It counts as in vivo, human. The following applies: 2 gram secnidazole microgranule formulation (70% drug in core).

With `Cc1ncc([N+](=O)[O-])n1CC(C)O` (centres unmarked) [Secnidazole, 1-(2-hydroxypropyl)-2-methyl-5-nitromidazole], in data set [1], the “% FE, Geometric Mean (SD)” value is 14.991 (3.0081) %; the “% FE, Mean (SD)” value is 15.300 (3.5549) %; the “% FE, Median” value is listed as 14.943%; the “Ae0-168, Geometric Mean (SD)” value was 0.300 (0.0602) g. In data set [1], the “Ae0-168, Mean (SD)” value is given as 0.306 (0.0711) g and the “Ae0-168, Median” value turned out to be 0.299 g. In addition, in data set [2], the “λz, Mean (SD)” value is 0.0422 (0.007544) 1/h and the “λz, Median” value amounted to 0.04047 h⁻¹.
